# Results reported in patent US20160051514A1, “METHODS FOR TREATMENT OF CARDIOMYOPATHY” (THE BRIGHAM AND WOMEN'S HOSPITAL, INC., priority 2013, published 2016).
# “Also recorded” adds a separate entry of the source.
# System: neonatal rat ventricular myocytes expressing 2057del2 plakoglobin
# Assay: Immunofluorescence of intercalated disk proteins in neonatal rat ventricular myocytes
# Assay type: cell-based
# Description: Neonatal rat ventricular myocyte isolation and culture, stretch protocols: Primary cardiac myocyte cultures were prepared from ventricles of 1-day-old Wistar rat pups (Charles River) as previously described.^9 Cells were plated on collagen-coated plastic chamber slides at a density of […] cells/cm^2 and grown for 4 days prior to experimentation. In selected experiments, monolayers grown on collagen--coated silicone membranes were subjected to linear pulsatile stretch using a custom-designed apparatus as described in previous studies.'° Cells were stretched to 110% of resting length at a. frequency of 3 Hz for 1-4 hr in serum-free medium. In other experiments cultures were incubated with reagents including pifitlirin A (5 μM, 1 hr) and SB216763 (5 μM, 24 hr) prior to experimentation. All protocols were approved by the Institutional Animal Care and Use Committee (IACUC).
# Viral transfection: A recombinant adenoviral construct expressing 2057del2-plakoglobin was created with the ViraPower Adenoviral Expression system (Invitrogen) using the pAd/CMV/V5-DEST vector through LR clonase-mediated recombination. The V5-tag was used to identify the mutant protein and distinguish it from wildtype plakoglobin. Two days post-plating, monolayers were exposed to viral solution (1:130 dilution in serum-free media, 37° C.) for 1 hr after which viral solution was replaced with complete medium in the presence or absence of reagents.
# Immunofluoresence staining and microscopy in cultured cells: Cultures were rinsed in serum-free medium and fixed in 4% paraformaldehyde at room temperature for 5 min or in acetone at −20° C. for 10 min. Fixed cells were immunostained with mouse monoclonal anti-plakoglobin (Sigma), anti-N-cadhcrin (Sigma), anti-Cx43 (Millipore), anti-desmopla.kin (Fitzgerald), anti-SAP97 (Santa Cruz Biotechnology) antibodies and anti-Nav1.5 (kindly provided by Dr. Hugues Abriel, University of Bern, Switzerland) antibodies. Specific immunoreactive signal was detected by laser scanning confocal microscopy as previously described.”
# Neonatal rat ventricular myocyte isolation, culture, stretch protocols: Primary cardiac myocyte cultures were prepared from ventricles of 1-day-old Wistar rat pups (Charles River) as previously described (36). Cells were plated on collagen-coated plastic chamber slides at a density of 2.4×10^5 cells/cm2 and grown for 4 days prior to experimentation. In selected experiments, monolayers grown on collagen-coated silicone membranes were subjected to linear pulsatile stretch using a custom-designed apparatus as described in previous studies (35). Cells were stretched to 110% of resting length at a frequency of 3 Hz for 1-4 hr in serum-free medium. In other experiments cultures were incubated with reagents including pifithrin A (5 μM, 1 hr) and SB216763 (0.1-10 μM for 12 or 24 hr) prior to experimentation. Vehicle controls (DMSO) were included in all experiments.
# Viral transfection: A recombinant adenoviral construct expressing 2057del2 plakoglobin was created with the ViraPower Adenoviral Expression™ system (Invitrogen) using the pAd/CMV/V5-DEST vector through LR clonase-mediated recombination. The V5-tag was used to identify the mutant protein and distinguish it from wildtype plakoglobin. Two days post-plating, monolayers were exposed to viral solution (1:130 dilution in serum-free media, 37° C.) for 1 hr after which viral solution was replaced with complete medium in the presence or absence of reagents. Immunofluorescence staining and microscopy in cultured cells: Cultures were rinsed in serum-free medium and fixed in 4% paraformaldehyde at 25° C. for 5 min or in acetone at −20° C. for 10 min. Fixed cells were immunostained with mouse monoclonal anti-plakoglobin (Sigma), anti-N-cadherin (Sigma), anti-Cx43 (Millipore), anti-desmoplakin (Fitzgerald), anti-SAP97 (Santa Cruz Biotechnology) antibodies and anti-Nav1.5 antibodies (rabbit polyclonal).
# [1] = cells expressing 2057del2 plakoglobin, 5 μM, 24 hr
# [2] = cells expressing 2057del2 plakoglobin, 5 μM, 24 hr, listed as SAB216763
# [3] = cells expressing 2057del2 plakoglobin, exposure for 24 hr
smiles,measurement,setting,value
Cn1cc(C2=C(c3ccc(Cl)cc3Cl)C(=O)NC2=O)c2ccccc21 [SB216763],"Disease features (plakoglobin redistribution, gap junction remodeling, cytokine expression, myocyte apoptosis), summary statements",,normalized; also recorded: reversed or prevented
same,Gap junction remodeling / junctional Cx43 signal,[1],increased junctional signal for Cx43; also recorded: prevented the adverse remodeling of gap junctions
same,Subcellular distribution of plakoglobin immunoreactive signal (junctional vs intracellular/nuclear),[1],prevented the marked change in subcellular distribution of plakoglobin and accumulation of nuclear signal
same,Gap junction remodeling / junctional Cx43 signal,[2],blocked
same,Subcellular distribution of plakoglobin immunoreactive signal (junctional vs intracellular/nuclear),[2],prevented redistribution of plakoglobin from junctional to intracellular pools
same,Nav1.5 immunoreactive signal,[3],signal levels were restored; also recorded: reversed
same,SAP97 immunoreactive signal at the cell surface / cell-cell junctions,[3],a more normal distribution was restored; also recorded: fully reversed
same,Cx43 signal at cell-cell junctions in control (non-transfected) cultures,"control cultures, 5 μM, 24 hr",increased the amount of Cx43 signal at cell-cell junctions; also recorded: also increased junctional signal for Cx43
same,Concentration of maximal effect in restoring normal cellular distribution of plakoglobin and Cx43 signals,"dose-response 0.1-10 μM for 12 or 24 hours, maximal at 24 hr",5 µM
